Test results published in PMC5877874, “Prenylated phloroglucinols from Hypericum scruglii, an endemic species of Sardinia (Italy), as new dual HIV-1 inhibitors effective on HIV-1 replication” (PLoS ONE, 2018).
Like-named read-outs stand apart in the source and are kept apart here.

What was measured:
[1] = molecular target: T1, HIV-1 RT-associated RNase H activity (Human immunodeficiency virus type 1 group M subtype B, UniProt P04585); experiment: RNase H polymerase-independent cleavage assay; format: biochemical; conditions: for IC50: concentration required to inhibit the HIV-1 RNase H activity by 50%; for Inhibition of both HIV-1 RT-associated RNase H and RDDP functions (in words): maximum concentration tested 100 μM
T1 construct: His-tagged p66/p51 HIV-1 RT; His tag; made in house; host or cells: Escherichia coli strain M15
Description: (§1) His-tagged p66/p51 HIV-1 RT was expressed in Escherichia coli strain M15 as previously described. Full-length IN and LEDGF proteins were expressed in E. coli BL21 (DE3).
The HIV-1 RT-associated RNase H activity was measured in 100 μL reaction volume containing 50 mM Tris–HCl, pH 7.8; 6 mM MgCl2; 1 mM dithiothreitol (DTT); 80 mM KCl; hybrid RNA/DNA (5′-[…]-3′-fluorescein, 5′-[…]-3′-Dabcyl); and 3.8 nM RT. The reaction mixture was incubated for 1 h at 37°C, the reaction was stopped by the addition of EDTA, and products were measured with a Victor 3 (Perkin) at 490/528 nm.

[2] = molecular target: T2, HIV-1 RT-associated RDDP activity (Human immunodeficiency virus type 1 group M subtype B, UniProt P04585); experiment: RDDP assay (Enz-Check Reverse Transcriptase Assay Kit); format: biochemical; conditions: for IC50: concentration required to inhibit the HIV-1 RDDP activity by 50%
T2 construct: His-tagged p66/p51 HIV-1 RT; His tag; made in house; host or cells: Escherichia coli strain M15
Description: as §1
The HIV-1 RT-associated RDDP activity was measured using the Enz-Check Reverse Transcriptase Assay Kit (Life technologies, Carls- bad, California, USA), as previously described. The Yonetani-Theorell analysis was performed as previously reported.

[3] = molecular target: T3, HIV-1 IN in the presence of LEDGF/p75 (Human immunodeficiency virus type 1 group M subtype B, UniProt P04585); experiment: HTRF LEDGF dependent integrase assay; format: biochemical; conditions: for IC50: IN catalytic activities in the presence of LEDGF/p75
T3 construct: Full-length IN and LEDGF proteins were expressed in E. coli BL21 (DE3); made in house; host or cells: E. coli BL21 (DE3)
Description: as §1
The IN LEDGF/p75 dependent assay allowed to measure the inhibition of the 3’processing and strand transfer IN reactions in the presence of recombinant LEDGF/p75 protein, as previously described. Briefly, 50 nM IN was preincubated with increasing concentration of compounds for 1 hour at room temperature in reaction buffer containing 20 mM HEPES pH 7.5, 1 mM DTT, 1% Glycerol, 20 mM MgCl2, 0.05% Brij-35 and 0.1 mg/ml BSA. To this mixture, 9 nM DNA donor substrate (5’-[…]-Biotin-3’ annealed with 5’-[…]-Biotin3’) and 50 nM DNA acceptor substrate (5’-Cy5-[…]-3’ annealed with 5’-Cy5- […]-3’) and 50 nM LEDGF/p75 protein were added and incubated at 37°C for 90 minutes.

HIV-1 virus NL(AD8) = experiment: Antiviral activity on HIV-1 (AD8) replication in TZM-bl cells (CPRG assay); format: cell-based; conditions: for EC50: read-out: EC50, HIV-1 (AD8) replication
Description: (§2) The human TZM-bl indicator cell line was obtained from the American Type Culture Collection (Manassas, VA) and maintained at 37°C and 5% CO2 in Dulbecco's modified Eagle's medium (DMEM) containing 10% fetal bovine serum, 50 μg/mLpenicillin, and 50 μg/mL streptomycin. The HIV-1 virus NL(AD8) was titrated as follows: serial 5-fold dilutions of the virus were made in quadruplicate wells in 96-well culture plates, in a total volume of 100 μL of growth medium, for a total of 8 dilution steps. Freshly trypsinized cells (20,000 cells in 100 μL of growth medium containing 75 μg/mL DEAE-dextran) were added to each well, and the plates were incubated at 37°C in a humidified 5% CO2-95% air environment. After 48 h of incubation, the medium was removed and viral infection was quantified using a β-galactosidase (CPRG) assay (Roche). Twenty thousand TZM-bl cells/well were seeded in 96-well plates in complete DMEM supplemented with 30 μg/mL DEAE-dextran (Sigma-Aldrich). Three hundred times the 50% tissue culture infective dose (TCID50)/mL of HIV AD8 strain and seven serial dilutions (range, 40.000 nM to 625 nM) of each compound were added to the cells, as previously described. Vehicle (0.1% dimethyl sulfoxide [DMSO])-treated cells served as a negative control. […] The TZM-bl indicator cell line has an integrated copy of the β-galactosidase gene under control of the HIV-1 promoter. Β-Galactosidase expression, measured by use of a chlorophenol red/β-D-galactopyranoside (CPRG) assay (Roche) in cell lysates 48 h post-infection was used as a marker of HIV infection. The inhibitory curves were fitted by nonlinear regression, allowing for the calculation of the 50% effective concentration (EC50) using the Prism software. To evaluate the cell toxicity of the compounds, the metabolic XTT [2,3-bis-(2-methoxy-4-nitro-5-sulfophenyl)-2H-tetrazolium-5-carboxanilide] test (Sigma-Aldrich) was performed according to the manufacturer's instructions.

[4] = Cell toxicity, metabolic XTT test; format: cell-based, human; conditions: human; TZM-bl cells, XTT; read-out: CC50, TZM-bl cell viability
Description: as §2

[5] = system: env-pseudotyped HIV-1 virus (REJO4541 clone 67); format: cell-based; conditions: TZM-bl cells, 40-fold EC50 concentration
Description: In TOA experiment it is of fundamental importance that only one replication cycle has been completed to avoid confounding effects derived from unwashed viruses after 1 hour of infection. […] 40000 TZM-bl cells/well in a 96-multiwell plate were infected with 1500 X the TCID50 per mL of the env-pseudotyped HIV-1 virus in complete medium supplemented with DEAE-dextran (Sigma–Aldrich, 30 mg/mL). Virus was incubated with cells for 1 h at 4°C, and unbound virus was subsequently removed by extensive and repeated washing with phosphate-buffered saline (PBS) to synchronize the replication. […] After 2 days, viral infection was quantified using a CPRG assay (Roche) and was then normalized to untreated control cells.

TZM-bl cells = experiment: Cell toxicity, metabolic XTT test; format: cell-based, human
Description: as §2

[6] = Human immunodeficiency virus 1, TZM-bl, 48 h
[7] = TZM-bl cells, 48 h post-infection

Row | Molecule | IC50 [1] | IC50 [2] | IC50 [3] | EC50 (HIV-1 virus NL(AD8); [6]) | Inhibition of both HIV-1 RT-associated RNase H and RDDP functions (in words) [1] | EC50 (HIV-1 virus NL(AD8); [7]) | further results
1 | C=C(C)C(O)CC/C(C)=C/Cc1c(O)cc(O)c(C(=O)C(C)CC)c1O (stereo not drawn) [Compound 3, 3-(13-hydroxygeranyl)-1-(2'-methylbutanoyl)phloroglucinol] | 9.1 ± 0.5 µM | 19.7 ± 3.5 µM | 13 ± 1 µM | 3.5 µM | – | – | CC50 [4]: > 50 µM; Time of addition after which antiviral activity is lost [5]: 4–5 hour post-infection
2 | C[C@@H]1O[C@@H](Oc2c(-c3ccc(O)c(O)c3)oc3cc(O)cc(O)c3c2=O)[C@H](O)[C@H](O)[C@H]1O [Compound 6, quercitrin] | 6.3 ± 1 µM | 9.7 ± 1.4 µM | 1.6 ± 0.16 µM | > 40 µM | active in the low micromolar range | – | Fold more active on HIV-1 IN activity with respect to HIV-1 RNase H function ([3]; IN versus RNase H IC50): 4 fold; Effect on HIV-1 replication (in words) (HIV-1 virus NL(AD8); highest tested concentration, TZM-bl cells): did not exert any effect
3 | 3-geranyl-1-(2'-methylbutanoyl)phloroglucinol [Compound 1] | 4.3 ± 0.4 µM | 25.5 ± 8.8 µM | 7.3 ± 0.3 µM | – | – | 3.5 µM | CC50 (TZM-bl cells): > 50 µM
4 | O=C(O)c1ccc(O)c(O)c1 [Compound 5, 3,4-dihydroxybenzoic acid] | > 100 µM | > 100 µM | > 100 µM | > 40 µM | inactive | – | remaining activity at 100 µM ([1]; 100 μM compound, read-out: Percentage of control RNase H activity in the presence of compound): 100%; remaining activity at 100 µM ([2]; 100 μM compound, read-out: Percentage of control RDDP activity in the presence of compound): 85%; remaining activity at 100 µM ([3]; 100 μM compound, in the presence of LEDGF, read-out: Percentage of control IN activity in the presence of compound): 97%; HIV-1 IN inhibition (in words) ([3]; in presence of LEDGF/p75): not active
5 | Oc1cc(O)c(CC(O)C(O)c2ccc(O)c(O)c2)c(O)c1 [Compound 4, 1,3,5-benzentriol 2-[(2S,3R)-3-(3,4-dihydroxylphenyl)-2,3-dihydroxylpropyl]] | 93 ± 7 µM | 92 ± 10 µM | 6.4 ± 0.7 µM | > 40 µM | weak inhibition | – | –
6 | 3-geranyl-1-(2'-methylpropanoyl)phloroglucinol [Compound 2] | 4.1 ± 0.1 µM | 12.3 ± 2.5 µM | 7.4 ± 0.4 µM | – | – | 8 µM | CC50 (TZM-bl cells): > 50 µM
7 | CCOC(=O)C(=O)CC(=O)/C=C/c1cccn1Cc1ccccc1Cl [RDS 1759, reference compound] | 7.3 ± 0.1 µM | – | – | – | – | – | –
8 | Maraviroc [reference compound] | – | – | – | – | – | 0.07 µM | –
